Patent US20060014644A1, “Phenylsulfonyl ureas, process for their preparation and their use as herbicides and plant growth regulators” (Hoechst Schering AgrEvo GmbH, priority 1999, published 2006)

Assays:
[1] = tested on: harmful plants such as Sinapis alba, Chrysanthemum segetum, Avena sativa, Stellaria media, Echinochloa crus-galli, Lolium multiflorum, Setaria spp., Abutilon …; assay: Pre-emergence effect on weeds (greenhouse pot test, visual scoring); format: in vivo, monocotyledonous and dicotyledonous weed plants; details: application rate of 0.3 kg and less of active substance per hectar, scored visually after 3 to 4 weeks by comparison with untreated controls
Text: 1. Pre-Emergence Effect on Weeds
Seeds or rhizome pieces of monocotyledonous and dicotyledonous weed plants were placed in sandy loam soil in cardboard pots and covered with soil. The compounds according to the invention which were formulated in the form of wettable powders or emulsion concentrates were then applied to the surface of the soil cover in the form of aqueous suspensions or emulsions at an application rate of 600 to 800 l of water/ha (converted), in various dosages.
After the treatment, the pots were placed in a greenhouse and kept under good growth conditions for the weeds. After the test plants had emerged, the damage to the plants or the negative effect on the emergence was scored visually after a test period of 3 to 4 weeks by comparison with untreated controls. As shown by the test results, compounds according to the invention have good herbicidal pre-emergence activity against a broad spectrum of weed grasses and broad-leafed weeds.

[2] = tested on: harmful plants such as Sinapis alba, Echinochloa crus-galli, Lolium multiflorum, Chrysanthemum segetum, Setaria spp., Abutilon theophrasti, Amaranthus …; assay: Post-emergence effect on weeds (greenhouse pot test, visual scoring); format: in vivo, monocotyledonous and dicotyledonous weeds; details: three-leaf stage, application rate of 0.3 kg and less of active substance per hectare, scored visually after about 3 to 4 weeks by comparison with untreated controls
Experimental: 2. Post-Emergence Effect on Weeds
Seeds or rhizome pieces of monocotyledonous and dicotyledonous weeds were placed in sandy loam soil in plastic pots, covered with soil and grown in a greenhouse under good growth conditions. Three weeks after sowing, the test plants were treated at the three-leaf stage. The compounds according to the invention which were formulated as wettable powders or emulsion concentrates were sprayed, at various dosages, onto the green parts of the plants at an application rate of 600 to 800 l of water/ha (converted). After the test plants had remained in the greenhouse for about 3 to 4 weeks under ideal growth conditions, the effect of the preparations was scored visually by comparison with untreated controls. The agents according to the invention also have good herbicidal activity post-emergence against a broad spectrum of economically important Weed grasses and broad-loafed weeds.

Structure (SMILES) | herbicidal activity against harmful plants, pre-emergence [1] | herbicidal activity against harmful plants, post-emergence [2]
COC(=O)c1c(N(C)C)cccc1S(=O)(=O)NC(=O)Nc1nc(OC)cc(OC)n1 [Example 1-401] | very good herbicidal activity | very good herbicidal activity
CCN(CC)c1cccc(S(=O)(=O)NC(=O)Nc2nc(OC)cc(OC)n2)c1C(=O)OC [Example 1-417] | very good herbicidal activity | very good herbicidal activity
COC(=O)c1c(N(CC(C)C)CC(C)C)cccc1S(=O)(=O)NC(=O)Nc1nc(OC)cc(OC)n1 [Example 1-425] | very good herbicidal activity | very good herbicidal activity
COC(=O)c1c(N(CC(C)C)CC(C)C)cccc1S(=O)(=O)[N-]C(=O)Nc1nc(OC)cc(OC)n1.[Na+] [Example 1-426] | very good herbicidal activity | very good herbicidal activity
